Reference: patent US20170166516A1, “STABLE POLYMORPH FORM B OF TAPENTADOL HYDROCHLORIDE” (priority 2014, published 2017)
Structures can show the parent of a compound that is named as a salt.

What was measured:
[1] = Stability test of polymorphic Form B on storage, followed by PXRD; type: physicochemical; settings: for change in amount of polymorphic Form A in Form B on storage (PXRD): 2 month storage, ambient temperature, sample contains traces of Form A, Hydrochloride
Method: In FIG. 1 the PXRD pattern of a stability sample experiment 1 are shown as well as PXRD pattern of Tapentadol hydrochloride in polymorphic crystal structure A and in polymorphic crystal structure B. The upper most pattern results from a sample (experiment 1) after a 4 month stability test at 27° C. and 42% RH (relative humidity). The second of top pattern results from the initial sample prior to the stability testing. […] The second last pattern represents the mono-crystal structure of pure Tapentadol Hydrochloride in polymorphic crystal Form B. The last pattern represents the mono-crystal structure of pure Tapentadol Hydrochloride in polymorphic crystal Form A.
For Powder X-Ray Diffraction (PXRD) the samples were placed onto a Si-wafer (Bragg-Brentano) or into a standard glass capillary (Ø=0.7 mm) (Example 2). The measurements were performed at room temperature with a D8 Bruker Advance Diffractometer (Cu-Kα1=1.54059 Å, Johansson primary beam monochromator, position sensitive detector) in transmission mode with rotation of the sample.

[2] = cited from earlier work; for stability of the crystalline form: ambient conditions, as disclosed in EP 1 612 203 A1, hydrochloride

For `CC[C@@H](c1cccc(O)c1)[C@@H](C)CN(C)C` [Example 3, Tapentadol Hydrochloride], the “change in amount of polymorphic Form A in Form B on storage (PXRD)” value [1] was “increase of Form A in Form B was observed” and the “change in amount of polymorphic Form A in Form B on storage (PXRD)” value ([1]; listed as experimental polymorphic Form B) was “amount of polymorphic Form A obviously increased”.
In the case of `CC[C@@H](c1cccc(O)c1)[C@@H](C)CN(C)C` [Form A, Tapentadol hydrochloride], the “stability of the crystalline form” value [2] is listed as “stable under ambient conditions”.
In the case of `CC[C@@H](c1cccc(O)c1)[C@@H](C)CN(C)C` [Form B, Tapentadol hydrochloride], the “stability of the crystalline form” value [2] is given as “meta-stable only”.
With `CC[C@@H](c1cccc(O)c1)[C@@H](C)CN(C)C` [experiment 1, Tapentadol Hydrochloride] the “transformation of polymorphic crystal Form B to Form A (PXRD pattern after stability test)” value ([1]; 4 month stability test at 27° C. and 42% RH) was “does not show any tendency to disintegrate or to transform to polymorphic crystal Form A” and the “transformation of Form B to polymorph A on storage (PXRD)” value ([1]; several months of storage under ambient conditions, no seeds of Form A) was “no transformation to polymorph A”.
For `CC[C@@H](c1cccc(O)c1)[C@@H](C)CN(C)C` [stable polymorph B, Tapentadol hydrochloride], the “duration of stability of polymorphic Form B” value ([2]; ambient temperatures, stabilised by low alkyl carboxylic acids or esters added during crystallization, WO 2013 111161 A1) is listed as “several months”.
